Assay results taken from patent publication US20090142304A1, “Composition for Improving Intestinal Flora” (priority 2005, published 2009).

Experiments:
Type in all cases: in vivo
Bifidobacterium [1] = assay: Growth effect on Bifidobacterium in human feces by intake of 1-kestose (Example 1); conditions: 10 g per day orally for 2 months, 5 mild diabetes subjects
Text: (§1) Quantitative determination of intestinal lactic acid bacteria counts can be carried out by a conventional method. For example, the lactic acid bacteria counts can be quantitatively determined according to the Mitsuoka's method (Mitsuoka Tomotari, “Chounaikin no Sekai (The World of Intestinal Bacteria)”, Sobunsha Co., Ltd., Tokyo, p. 53-65) by sampling feces of a tested subject. The intestinal Bifidobacterium count can be similarly quantitatively determined.
(§2) A sample composition containing 99.4% of 1-kestose, 0.15% of acesulfame potassium, 0.32% of sucralose and 0.13% of Sweetness Enhancer ME-2208T (Trade Name) (Firmenich SA) was used (all by % by weight).
In a test, each 10 g per day of the sample composition was fed orally for 2 months to 7 male and female test subjects with mild diabetes in the age range of 20 to 70 years. Samples of the feces of the respective subjects were collected just before the start of intake (month 0), 2 months after the start of intake (month 2) and 1 month after the end of intake (month 3), and the lactic acid bacteria counts in the samples were quantitatively determined by the method of Mitsuoka (Mitsuoka Tomotari “Chounaikin no Sekai (The World of Intestinal Bacteria)” Sobunsha Co., Ltd., Tokyo, p. 53-65). Similarly, the Bifidobacterium counts in the samples were quantitatively determined. […]

Lactobacillus sp. = assay: Growth effect on lactic acid bacteria in human feces by intake of Meioligo P (Example 2)
Text: as §1
(§3) As a sample composition, Meioligo P (Trade Name) (Meiji Seika Kaisha), which was a composition containing 35% of 1-kestose, 55% of nystose and 10% of fructo-furanosyl nystose, was used.
(§4) In a test, each 3 g per day of the sample composition (1.05 g based on the weight of 1-kestose) was fed orally for 2 months to 7 healthy female test subjects in the age range of 19 to 41 years. Samples of the feces of the respective subjects were then collected just before the start of intake (week 0), 2 weeks after the start of intake (week 2) and 2 weeks after the end of intake (week 4), and the lactic acid bacteria count and the Bifidobacterium count in the samples were quantitatively determined similarly to Example 1.
(§5) The changes of the lactic acid bacteria count and the Bifidobacterium count in the feces by the intake of 1-kestose with respect to the 7 subjects are shown in the Figures.

Bifidobacterium [2] = assay: Growth effect on Bifidobacterium in human feces by intake of Meioligo P (Example 2); conditions: fed as Meioligo P 3 g per day (1.05 g 1-kestose)
Text: as §1, §3, §4, §5

[3] = test system: lactic acid bacteria belonging to genus Lactobacillus; assay: Growth effect on lactic acid bacteria in human intestine by intake of 1-kestose (Example 1, fecal count, Mitsuoka method)
Text: as §1, §2
In a test, each 10 g per day of the sample composition was fed orally for 2 months to 7 male and female test subjects with mild diabetes in the age range of 20 to 70 years. Samples of the feces of the respective subjects were collected just before the start of intake (month 0), 2 months after the start of intake (month 2) and 1 month after the end of intake (month 3), and the lactic acid bacteria counts in the samples were quantitatively determined by the method of Mitsuoka (Mitsuoka Tomotari “Chounaikin no Sekai (The World of Intestinal Bacteria)” Sobunsha Co., Ltd., Tokyo, p. 53-65). Similarly, the Bifidobacterium counts in the samples were quantitatively determined.
By 5 out of the subjects 7, lactic acid bacteria belonging to genus Lactobacillus were detected at 10^6 CFU/g-feces or higher, and the changes of the lactic acid bacteria count and the Bifidobacterium count by the intake of 1-kestose with respect to the 5 subjects are shown in the Figures.

OC[C@H]1O[C@@](CO)(OC[C@@]2(O[C@H]3O[C@H](CO)[C@@H](O)[C@H](O)[C@H]3O)O[C@H](CO)[C@@H](O)[C@@H]2O)[C@@H](O)[C@@H]1O [1-kestose]
increase of mean Bifidobacterium count, after vs before the intake (Bifidobacterium [1]): about 7 fold | subjects in whom the Bifidobacterium count was increased (Bifidobacterium [1]; sample composition 99.4% 1-kestose): all of 5 | increase of mean Lactobacillus sp. count, after vs before the intake (Lactobacillus sp.; fed as Meioligo P 3 g per day (1.05 g 1-kestose), 7 healthy females): about 20 fold | increase of Lactobacillus sp. count in each of the 4 subjects with increase (Lactobacillus sp.; fed as Meioligo P 3 g per day (1.05 g 1-kestose), the 4 subjects with increase): ≥ 10 fold | subjects in whom the count of Lactobacillus sp. was increased by intake (Lactobacillus sp.; fed as Meioligo P (35% 1-kestose, 55% nystose, 10% fructo-furanosyl nystose), 3 g per day (1.05 g 1-kestose) orally, 7 healthy female subjects): 4 out of 7 | subjects in whom the Bifidobacterium count was increased (Bifidobacterium [2]; 7 healthy female subjects): 6 out of the 7 | increase of mean Bifidobacterium count, after vs before the intake (Bifidobacterium [2]; 7 healthy females): about 2 fold | increase of mean Lactobacillus sp. count, after vs before the intake ([3]; 10 g per day orally for 2 months, 5 mild diabetes subjects): about 10 fold | effect of the composition containing 1-kestose by lactic acid bacteria count in the feces ([3]; human whose lactic acid bacteria count in the feces is ≧10^6 CFU/g or higher (Example 1)): stronger | subjects in whom the count of Lactobacillus sp. was increased by intake ([3]; sample composition 99.4% 1-kestose, 10 g per day orally for 2 months, subjects with mild diabetes with Lactobacillus at 10^6 CFU/g-feces or higher (5 of 7)): 4 out of the 5
